Laboratory results from patent publication US20080167444A1, “Abc Transporter Inhibitor” (priority 2004, published 2008).
Several values for one entry are separate records, joined by “and”; a condition that tells them apart may be missing. Identical values can stand only once.

How the values were obtained:
PDR5 protein [1] = target: T1, PDR5 protein (Saccharomyces cerevisiae, UniProt P33302); assay: Growth inhibition of yeast with overexpressed PDR5 in the presence of cycloheximide or cerulenin (absorbance at 660 nm); assay type: cell-based; settings: for IC50: IC50 (concentration for 50% growth-inhibition), IC50 of cycloheximide or cerulenin, without or with addition of 5 μg/mL enniatin mixture or FK-506; for inhibition of growth of the yeast with overexpressed PDR5: test drug at 5 μg/mL, cycloheximide or cerulenin present, static culture 30° C. 24 hours
T1 construct: expressed in transfected cells; host or cells: Saccharomyces cerevisiae W303 (MAT a Δsyr/erg3::HIS3 Δpdr5::LEU2 Δsnq2::HIS3)
Protocol: (§1) Yeast with overexpressed PDR5 by transformation of the host yeast (Saccharomyces cerevisiae W303 (MAT a Δsyr/erg3::HIS3 Δpdr5::LEU2 Δsnq2::HIS3)) with the PDR5 expression vector and the host yeast were inoculated separately in 4 mL each of the minimum medium followed by shaking culture at 30° C. for 12 hours. To a 96-well microtiter plate to which cycloheximide or cerulenin of various concentrations had been added, was added purified enniatin B, B1, D, or enniatin mixture of various concentrations, followed by inoculation of the above-mentioned yeast. The volume per well was adjusted to 200 μL by addition of the minimum medium. After static culture at 30° C. for 24 hours, the extent of growth of yeast was determined for evaluation of the growth-inhibiting activity of the test drug against the yeast with overexpressed PDR5 and against the host yeast. The extent of growth of yeast was determined by measurement of absorbance at 660 nm using a microtiter plate reader (MTP-500; CORONA). The growth-inhibiting activity against the yeast with overexpressed PDR5 and against the host yeast was also determined for immunosuppressor FK-506, the positive control, which is known to inhibit yeast PDR5 protein and human MDR1 protein (P-glycoprotein).

[2] = tested on: host yeast (Saccharomyces cerevisiae W303 (MAT a Δsyr/erg3::HIS3 Δpdr5::LEU2 Δsnq2::HIS3)); assay: Growth inhibition of the host yeast (PDR5 and SNQ2 deleted); assay type: cell-based; settings: test drug elevated to 5 μg/mL; static culture 30° C. 24 hours
Protocol: as §1

PDR5 protein [3] = target: T1, PDR5 protein; assay: Rhodamine 6G accumulation in yeast with overexpressed PDR5 (fluorescence microscope); assay type: cell-based; settings: drug at final concentration 25 μg/mL, 2 hours, then rhodamine 6G 30 minutes
Protocol: (§2) The above-mentioned strain with overexpressed PDR5 and the above-mentioned host yeast were separately subjected to shaking culture at 30° C. for 12 hours in 4 mL of the minimum medium. Then a quantity of yeast corresponding to 1.0×10^6 cells was inoculated to 4 mL of the minimum medium. Enniatin B, B1, D, enniatin mixture, or FK-506 was added to the final concentration of 25 μg/mL, and after shaking culture at 30° C. for 2 hours, 15 μL of rhodamine 6G (1 mg/mL) was added followed by culture under the same conditions for 30 minutes. After culture, the culture was washed twice with 2% glucose solution in PBS (phosphate-buffered saline) and the fluorescence in yeast cells was observed under a fluorescence microscope (Nicon ECLIPSE E400, using G-2A filter).

PDR5-deleted host yeast = assay: Rhodamine 6G accumulation in PDR5-deleted host yeast (fluorescence microscope); assay type: cell-based, Saccharomyces cerevisiae; settings: drug at final concentration 25 μg/mL; compared with no addition of the drug
Protocol: as §2

PDR5 gene = assay: PDR5 transcription activity, β-galactosidase (lacZ) reporter downstream of Pdr5 promoter; assay type: cell-based, yeast; settings: drug at final concentration 25 μg/mL, 8 hours; compared with no addition
Protocol: The effect of enniatin on expression of PDR5 gene was analyzed based on measurement of the PDR5 transcription activity using β-galactosidase gene as the reporter gene. Yeast, where had been introduced a recombinant plasmid obtained by fusion of β-galactosidase gene (lacZ) in the downstream of Pdr5 promoter, was subjected to shaking culture at 30° C. for 8 hours in 4 mL of YEPD medium, and a quantity of yeast corresponding to 1.0×10^6 cells was inoculated in 4 mL of the medium. At the same time, enniatin B, B1, D, enniatin mixture, or FK-506 was added to the final concentration of 25 μg/mL. After shaking culture at 30° C. for 8 hours, 1.0×10^7 yeast cells were collected. The cells were then suspended in 1 mL of Z buffer solution (60 mM disodium hydrogen phosphate, 40 mM sodium dihydrogen phosphate, 10 mM potassium chloride, 1 mM magnesium sulfate, 50 mM […], pH 7.0). The cell suspension was treated with 45 μL of chloroform and 30 μL of 0.1% sodium dodecyl sulfate at 30° C. for 5 minutes. The suspension was then treated with 200 μL of o-NPG (o-nitrophenyl-β-D-galactopyranoside) of 4 mg/mL at 30° C. for 10 minutes. After reaction was stopped by addition of 500 μL of 1 M sodium carbonate, absorbance at 420 nm was measured to determine the activity of β-galactosidase. The activity of β-galactosidase was calculated using a unit=1000×A420/10 (reaction time). […] Thus it could be confirmed that inhibition of PDR5 function by enniatin B, B1, D, enniatin mixture, or FK-506 is not ascribable to the inhibition of transcription of PDR5 gene.

PDR5 protein [4] = assay: Western blotting of PDR5 protein (quantity and stability); assay type: cell-based, yeast; settings: after addition of the drug
From the text: The effects of enniatin B, B1, D, and enniatin mixture on the quantity of PDR5 protein as the translation product and on the stability of PDR5 protein were investigated by Western blotting of PDR5 protein. After addition of enniatin B, B1, D, or enniatin mixture, quantitative change of PDR5 protein was not observed, which confirmed that apparent inhibition of the function of PDR5 gene product is ascribable neither to inhibition of translation of PDR5 protein nor to reduced stability of the protein through acceleration of decomposition of PDR5 protein.

T1 sequence (P33302 whole entry): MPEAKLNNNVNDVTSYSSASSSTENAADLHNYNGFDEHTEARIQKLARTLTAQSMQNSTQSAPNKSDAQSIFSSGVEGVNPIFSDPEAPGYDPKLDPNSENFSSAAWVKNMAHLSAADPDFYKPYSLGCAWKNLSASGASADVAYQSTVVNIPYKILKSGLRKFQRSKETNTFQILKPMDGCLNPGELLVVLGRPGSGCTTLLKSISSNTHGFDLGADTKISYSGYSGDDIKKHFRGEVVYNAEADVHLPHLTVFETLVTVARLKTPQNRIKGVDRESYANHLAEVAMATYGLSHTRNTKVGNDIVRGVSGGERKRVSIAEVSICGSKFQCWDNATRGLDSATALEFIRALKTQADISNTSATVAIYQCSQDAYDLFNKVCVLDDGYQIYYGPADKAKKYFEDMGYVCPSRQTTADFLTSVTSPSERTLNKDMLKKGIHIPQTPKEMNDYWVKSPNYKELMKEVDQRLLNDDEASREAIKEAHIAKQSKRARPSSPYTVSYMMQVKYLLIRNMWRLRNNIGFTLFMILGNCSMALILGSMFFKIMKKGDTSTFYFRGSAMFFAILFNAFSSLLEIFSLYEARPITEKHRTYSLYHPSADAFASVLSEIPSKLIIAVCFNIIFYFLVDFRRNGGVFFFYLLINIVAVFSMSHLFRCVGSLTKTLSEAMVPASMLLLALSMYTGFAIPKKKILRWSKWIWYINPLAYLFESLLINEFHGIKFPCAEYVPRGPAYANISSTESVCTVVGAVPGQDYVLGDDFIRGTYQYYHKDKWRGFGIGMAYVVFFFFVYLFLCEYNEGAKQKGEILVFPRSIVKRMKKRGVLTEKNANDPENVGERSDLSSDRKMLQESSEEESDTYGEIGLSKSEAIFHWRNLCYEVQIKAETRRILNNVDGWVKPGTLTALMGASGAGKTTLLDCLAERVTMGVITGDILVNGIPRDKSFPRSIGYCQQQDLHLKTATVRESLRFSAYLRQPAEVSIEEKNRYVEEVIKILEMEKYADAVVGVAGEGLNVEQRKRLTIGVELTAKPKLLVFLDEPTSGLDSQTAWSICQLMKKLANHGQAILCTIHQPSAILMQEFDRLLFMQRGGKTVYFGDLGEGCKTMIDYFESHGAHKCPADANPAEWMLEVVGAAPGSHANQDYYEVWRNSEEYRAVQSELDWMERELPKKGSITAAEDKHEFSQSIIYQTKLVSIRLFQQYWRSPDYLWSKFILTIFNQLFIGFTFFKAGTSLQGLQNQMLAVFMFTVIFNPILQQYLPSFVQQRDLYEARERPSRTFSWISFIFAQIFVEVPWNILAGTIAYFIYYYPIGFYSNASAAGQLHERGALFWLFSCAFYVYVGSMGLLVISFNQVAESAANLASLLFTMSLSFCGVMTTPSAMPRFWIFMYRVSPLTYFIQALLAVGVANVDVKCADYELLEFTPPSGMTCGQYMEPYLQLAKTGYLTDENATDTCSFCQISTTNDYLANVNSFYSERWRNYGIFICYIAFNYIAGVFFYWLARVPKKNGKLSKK

C/C=C/C/C=C/CCC(=O)[C@H]1O[C@H]1C(N)=O [Cerulenin]
IC50 (PDR5 protein [1]): 1500 nM and 1570 nM

C[C@@H]1C[C@@H]([C@H](O)CC2CC(=O)NC(=O)C2)C(=O)[C@@H](C)C1 [Cycloheximide]
IC50 (PDR5 protein [1]): 462 nM and 434 nM

CC[C@H](C)[C@H]1C(=O)O[C@H](C(C)C)C(=O)N(C)[C@@H](C(C)C)C(=O)O[C@H](C(C)C)C(=O)N(C)[C@@H](C(C)C)C(=O)O[C@H](C(C)C)C(=O)N1C [enniatin B1, Enniatin B1]
inhibition of growth of the yeast with overexpressed PDR5 (PDR5 protein [1]): completely
inhibition of growth of the host yeast (cytotoxicity) [2]: not observed
rhodamine 6G accumulation in yeast with overexpressed PDR5 (PDR5 protein [3]): accumulated rhodamine 6G
rhodamine 6G accumulation in PDR5-deleted host yeast (PDR5-deleted host yeast): rhodamine 6G was accumulated in yeast cells
activity of β-galactosidase (PDR5 transcription activity) (PDR5 gene): not different from that without addition of the drug
quantitative change of PDR5 protein (Western blotting) (PDR5 protein [4]): not observed

CC(C)[C@H]1C(=O)O[C@H](C(C)C)C(=O)N(C)[C@@H](C(C)C)C(=O)O[C@H](C(C)C)C(=O)N(C)[C@@H](C(C)C)C(=O)O[C@H](C(C)C)C(=O)N1C [enniatin B, Enniatin B]
inhibition of growth of the yeast with overexpressed PDR5 (PDR5 protein [1]): completely
inhibition of growth of the host yeast (cytotoxicity) [2]: not observed
rhodamine 6G accumulation in yeast with overexpressed PDR5 (PDR5 protein [3]): accumulated rhodamine 6G
rhodamine 6G accumulation in PDR5-deleted host yeast (PDR5-deleted host yeast): rhodamine 6G was accumulated in yeast cells
activity of β-galactosidase (PDR5 transcription activity) (PDR5 gene): not different from that without addition of the drug
quantitative change of PDR5 protein (Western blotting) (PDR5 protein [4]): not observed

CC(C)CC1C(=O)OC(C(C)C)C(=O)N(C)C(C(C)C)C(=O)OC(C(C)C)C(=O)N(C)C(C(C)C)C(=O)OC(C(C)C)C(=O)N1C (centres unmarked) [enniatin D, Enniatin D]
inhibition of growth of the yeast with overexpressed PDR5 (PDR5 protein [1]): completely
inhibition of growth of the host yeast (cytotoxicity) [2]: not observed
rhodamine 6G accumulation in yeast with overexpressed PDR5 (PDR5 protein [3]): accumulated rhodamine 6G
rhodamine 6G accumulation in PDR5-deleted host yeast (PDR5-deleted host yeast): rhodamine 6G was accumulated in yeast cells
activity of β-galactosidase (PDR5 transcription activity) (PDR5 gene): not different from that without addition of the drug
quantitative change of PDR5 protein (Western blotting) (PDR5 protein [4]): not observed
